{"source": "ChEMBL document CHEMBL4052712", "about": "“Design and optimization of highly-selective, broad spectrum fungal CYP51 inhibitors” (Bioorg Med Chem Lett, 2017)", "key": {"[1]": {"experiment": "Tmax in Swiss albino mouse at 5 mg/kg, po measured during 0.5 to 48 hrs post dose by HPLC/MS/MS method", "type": "ADME, organism-based", "details": "in vivo"}, "Brain [2]": {"tested_on": "Brain", "experiment": "Drug level in Swiss albino mouse brain at 5 mg/kg, po after 48 hrs assessed as relative Cmax level relative to plasma drug level by HPLC/MS/MS method", "type": "ADME, organism-based"}, "[3]": {"experiment": "Half life in Swiss albino mouse kidney at 5 mg/kg, po measured during 0.5 to 48 hrs post dose by HPLC/MS/MS method", "type": "ADME, organism-based"}, "Brain [4]": {"tested_on": "Brain", "experiment": "Drug level in Swiss albino mouse brain at 5 mg/kg, po after 48 hrs assessed as relative AUC (48 hrs) level relative to plasma drug level by HPLC/MS/MS method", "type": "ADME, organism-based"}, "[5]": {"target": "T1, Cytochrome P450 11B2, mitochondrial (Homo sapiens, UniProt P19099)", "T1 sequence (P19099 whole entry)": "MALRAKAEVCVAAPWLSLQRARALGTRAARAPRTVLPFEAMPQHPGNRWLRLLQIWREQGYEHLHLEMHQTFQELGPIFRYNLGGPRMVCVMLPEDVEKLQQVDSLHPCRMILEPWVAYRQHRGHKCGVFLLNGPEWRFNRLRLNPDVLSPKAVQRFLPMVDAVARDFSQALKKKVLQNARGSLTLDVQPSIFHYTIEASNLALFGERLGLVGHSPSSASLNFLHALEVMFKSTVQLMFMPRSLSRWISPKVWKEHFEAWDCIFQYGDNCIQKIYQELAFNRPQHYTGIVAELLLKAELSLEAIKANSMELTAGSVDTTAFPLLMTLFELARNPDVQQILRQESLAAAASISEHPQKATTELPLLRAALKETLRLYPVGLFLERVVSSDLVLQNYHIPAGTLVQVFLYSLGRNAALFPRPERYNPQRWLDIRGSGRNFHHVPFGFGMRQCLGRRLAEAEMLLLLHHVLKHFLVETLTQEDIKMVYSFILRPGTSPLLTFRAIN", "experiment": "Inhibition of CYP11B2 in human hepatocyte microsomes using deoxycorticosteroid substrate by HPLC/MS/MS method", "type": "ADME"}, "[6]": {"experiment": "AUClast in Swiss albino mouse at 5 mg/kg, po measured during 0.5 to 48 hrs post dose by HPLC/MS/MS method", "type": "ADME, organism-based", "design": "dose 5 mg/kg, route oral, time 0 - last", "details": "in vivo"}, "Aromatase": {"target": "T2, Aromatase (Homo sapiens, UniProt P11511)", "T2 sequence (P11511 whole entry)": "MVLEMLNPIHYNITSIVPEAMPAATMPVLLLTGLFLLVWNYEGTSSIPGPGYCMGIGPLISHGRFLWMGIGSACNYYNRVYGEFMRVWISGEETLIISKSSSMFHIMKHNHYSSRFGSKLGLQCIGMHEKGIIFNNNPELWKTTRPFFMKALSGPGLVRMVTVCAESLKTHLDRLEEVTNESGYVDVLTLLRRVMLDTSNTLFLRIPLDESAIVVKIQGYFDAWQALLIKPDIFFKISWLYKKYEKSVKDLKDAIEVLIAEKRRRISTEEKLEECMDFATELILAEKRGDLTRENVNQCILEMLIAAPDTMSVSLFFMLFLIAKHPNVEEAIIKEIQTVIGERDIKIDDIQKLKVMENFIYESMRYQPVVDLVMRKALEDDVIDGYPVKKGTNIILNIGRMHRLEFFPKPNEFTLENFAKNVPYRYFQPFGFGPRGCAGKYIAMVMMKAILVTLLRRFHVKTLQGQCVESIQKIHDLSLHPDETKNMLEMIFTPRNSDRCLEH", "experiment": "Inhibition of CYP19 in human hepatocyte microsomes using testosterone substrate by HPLC/MS/MS method", "type": "ADME"}, "[7]": {"target": "T3, Lanosterol 14-alpha demethylase (Aspergillus, UniProt B8NUK6+G4WW85+Q9P8R0)", "T3 sequence (B8NUK6 whole entry)": "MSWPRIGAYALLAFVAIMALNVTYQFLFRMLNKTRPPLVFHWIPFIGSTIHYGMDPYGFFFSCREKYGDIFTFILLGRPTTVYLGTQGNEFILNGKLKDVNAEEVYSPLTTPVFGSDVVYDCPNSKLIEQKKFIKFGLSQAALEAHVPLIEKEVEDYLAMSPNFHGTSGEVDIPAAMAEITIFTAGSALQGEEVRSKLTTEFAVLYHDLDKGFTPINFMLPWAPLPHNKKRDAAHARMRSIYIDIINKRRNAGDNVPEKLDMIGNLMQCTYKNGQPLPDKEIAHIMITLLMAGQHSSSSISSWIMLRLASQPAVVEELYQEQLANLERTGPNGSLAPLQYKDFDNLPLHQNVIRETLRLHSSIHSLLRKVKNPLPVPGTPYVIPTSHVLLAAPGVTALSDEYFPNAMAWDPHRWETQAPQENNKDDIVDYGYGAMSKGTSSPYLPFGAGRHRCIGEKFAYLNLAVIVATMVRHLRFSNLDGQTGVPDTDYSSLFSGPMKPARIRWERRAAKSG", "T3 sequence (Q9P8R0 whole entry)": "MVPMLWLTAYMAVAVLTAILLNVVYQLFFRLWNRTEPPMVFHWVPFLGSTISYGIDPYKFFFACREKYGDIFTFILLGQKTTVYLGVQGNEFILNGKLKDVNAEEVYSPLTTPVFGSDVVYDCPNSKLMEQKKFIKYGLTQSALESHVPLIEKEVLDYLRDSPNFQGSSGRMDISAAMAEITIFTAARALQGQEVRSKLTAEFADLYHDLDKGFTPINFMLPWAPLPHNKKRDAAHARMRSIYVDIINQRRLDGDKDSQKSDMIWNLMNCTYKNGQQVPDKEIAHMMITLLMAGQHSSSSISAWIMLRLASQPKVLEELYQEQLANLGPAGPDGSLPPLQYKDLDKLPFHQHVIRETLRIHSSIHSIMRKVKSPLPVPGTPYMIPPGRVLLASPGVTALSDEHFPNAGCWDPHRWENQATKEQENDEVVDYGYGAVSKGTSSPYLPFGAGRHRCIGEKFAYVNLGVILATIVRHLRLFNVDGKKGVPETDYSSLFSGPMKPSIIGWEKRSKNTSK", "T3 sequence (G4WW85 whole entry)": "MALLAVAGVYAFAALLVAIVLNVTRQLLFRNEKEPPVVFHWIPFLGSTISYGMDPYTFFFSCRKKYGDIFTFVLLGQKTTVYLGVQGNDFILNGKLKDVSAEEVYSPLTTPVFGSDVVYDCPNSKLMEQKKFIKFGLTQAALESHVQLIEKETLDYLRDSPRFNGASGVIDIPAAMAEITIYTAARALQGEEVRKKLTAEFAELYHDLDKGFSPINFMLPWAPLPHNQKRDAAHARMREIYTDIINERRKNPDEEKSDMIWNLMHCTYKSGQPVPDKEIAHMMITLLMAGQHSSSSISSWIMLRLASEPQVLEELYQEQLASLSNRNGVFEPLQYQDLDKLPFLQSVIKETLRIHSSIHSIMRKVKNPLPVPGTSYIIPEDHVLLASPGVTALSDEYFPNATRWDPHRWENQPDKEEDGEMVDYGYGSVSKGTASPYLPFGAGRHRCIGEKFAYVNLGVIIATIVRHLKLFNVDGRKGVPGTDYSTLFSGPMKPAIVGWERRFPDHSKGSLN", "experiment": "Binding affinity to Aspergillus fumigatus CYP51"}, "Lung": {"tested_on": "Lung", "experiment": "Drug level in Swiss albino mouse lung at 5 mg/kg, po after 48 hrs assessed as relative AUC (48 hrs) level relative to plasma drug level by HPLC/MS/MS method", "type": "ADME, organism-based", "details": "other tissue"}}}
{"compound": "N#Cc1ccc(COc2ccc(C#Cc3ccc(C(F)(F)C(O)(Cn4cnnn4)c4ccc(F)cc4F)nc3)cc2)cc1", "note": "(single isomer, unassigned; (+))", "values": [{"measurement": "Tmax", "setting": "[1]", "value": 4, "unit": "h"}, {"measurement": "Drug uptake", "setting": "Brain [2]", "value": 58, "unit": "%"}, {"measurement": "half-life", "setting": "[3]", "value": "16 to 19", "unit": "h"}, {"measurement": "Drug uptake", "setting": "Brain [4]", "value": 65, "unit": "%"}, {"measurement": "IC50", "setting": "[5]", "value": "> 100", "unit": "µM"}, {"measurement": "AUC(0-t)", "setting": "[6]", "value": 67000, "unit": "ng·h/mL"}, {"measurement": "IC50", "setting": "Aromatase", "value": "> 100", "unit": "µM"}, {"measurement": "Kd", "setting": "[7]", "value": 0.013, "unit": "µM"}, {"measurement": "Drug uptake", "setting": "Lung", "value": 94, "unit": "%"}]}
